Literature values, collected in patent US20090093547A1, “Compositions and Methods for Treating Premature Ejaculation” (Sciele Pharma, Inc., priority 2007, published 2009).
Where a name gives a salt, the structure may show the parent alone.

Conditions: hydrochloride salt crystallized from ethanol and isopropyl ether

solubility in water: readily soluble
SMILES: CCCNC(C)C(=O)Nc1ccccc1C (stereo not shown) [Prilocalne hydrochloride salt, Prilocalne]
